Target: T1, human α7 nAChR (Homo sapiens, UniProt P36544)
T1 construct: expressed in transfected cells
Assay: Evaluation of PAM activity with human α7 nACh receptor stably expressing cells (aequorin luminescence, FDSS7000)
Format: cell-based
Conditions: for activity at 10 µM: read-out: α7PAM (%) @10 μM; for activity at 1 µM: 1 μM test compound (values marked *, footnote of Table 25), read-out: α7PAM (%) @1 μM; for PAM activity for α7 nAChR (in words): comparison across Tables 18 to 25
Method: Evaluation of PAM activity with human α7 nACh receptor stably expressing cells
(1) Human α7 nAChR stably expressing cells
Human α7 nAChR stably expressing cells were generated and cultured.
Thus, the cells were subcultured.
Seven days after subculturing, the cells were treated with TrypLE Express to collect them when they were about 80% confluent.
On the next day after seeding, Viviren (cat#E649X, Promega, Madison, Wis., USA) was added to the medium so that the final concentration could be 4 μM (15 μL/well). The plates were centrifuged and then placed in the dark for 4 hours at room temperature.
(2) Preparation of the Test Samples
Each of the test compounds was dissolved in DMSO to prepare each test sample at a concentration of 1000-fold the final concentration. To the solution was added Hanks/20 mM HEPES/0.2% BSA (cat#A3803, Sigma, St. Louis, Mo., USA), and the concentration was adjusted to 6-fold the final concentration.
(3) Evaluation of PAM Activity
FDSS7000 (Hamamatsu Photonics) was used to detect the luminescence signal evoked by α7 nAChR stimulation. The cells and a luminescent substrate were put on a plate, and the test sample was added thereto. […] The ratio of the RLU (Max-Min) of the test-compound-containing wells to that of the control wells was defined as PAM activity.

[1] = 10 μM test compound, ACh at EC20, ratio of RLU (Max-Min) to control wells
[2] = ACh at EC20, ratio of RLU (Max-Min) to control wells

T1 sequence (P36544 23-502): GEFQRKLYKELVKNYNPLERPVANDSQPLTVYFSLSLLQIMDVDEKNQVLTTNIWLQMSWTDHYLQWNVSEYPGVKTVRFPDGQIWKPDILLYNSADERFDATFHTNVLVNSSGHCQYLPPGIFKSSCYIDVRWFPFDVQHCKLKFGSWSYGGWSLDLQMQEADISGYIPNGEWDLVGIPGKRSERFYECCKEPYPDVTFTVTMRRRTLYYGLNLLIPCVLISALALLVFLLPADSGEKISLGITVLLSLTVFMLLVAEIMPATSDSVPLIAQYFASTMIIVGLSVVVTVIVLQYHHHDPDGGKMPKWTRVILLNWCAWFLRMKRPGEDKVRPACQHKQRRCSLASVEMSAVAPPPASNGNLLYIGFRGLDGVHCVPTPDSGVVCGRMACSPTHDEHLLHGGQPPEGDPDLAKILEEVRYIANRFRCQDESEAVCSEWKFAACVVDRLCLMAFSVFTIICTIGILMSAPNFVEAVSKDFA

Structure (SMILES) | activity at 10 µM [1] [%] | also measured
O=C(N[C@H]1CC[C@H](C(F)(F)F)CC1)N1CCC(n2cnc(-c3cccc(F)c3)c2)CC1 [Example 3, 4-[4-(3-Fluorophenyl)-1H-imidazol-1-yl]-N-[trans-4-(trifluoromethyl)cyclohexyl]piperidine-1-carboxamide] | 493 | –
N#Cc1c(-c2ccccc2)ncn1C1CCN(C(=O)C2CCC(F)(F)CC2)CC1 [Example 7, 1-{1-[(4,4-Difluorocyclohexyl)carbonyl]piperidin-4-yl}-4-phenyl-1H-imidazole-5-carbonitrile] | 644 | –
CC(C)(F)C(=O)N[C@H]1CC[C@@H](n2cnc(-c3ccc(F)cc3)c2)CC1 [Example 8, 2-Fluoro-N-{cis-4-[4-(4-fluorophenyl)-1H-imidazol-1-yl]cyclohexyl}-2-methylpropanamide] | – | α7PAM (%) @10 μM [1]: 476%
O=C(NC1CCCCC1)[C@H]1CC[C@@H](n2cnc(-c3ccccc3)c2)CC1 [Example 9, cis-N-Cyclohexyl-4-(4-phenyl-1H-imidazol-1-yl)cyclohexanecarboxamide] | 121 | –
O=C(NC1CCCCC1)N1CCC(n2cnc(-c3c(F)cccc3F)c2)CC1 [Example 10] | 597 | –
O=C(NCC1CCCCC1)N1CCC(n2cnc(-c3c(F)cccc3F)c2)CC1 [Example 11] | – | activity at 1 µM [2]: 116%
O=C(Nc1ccccc1F)N1CCC(n2cnc(-c3c(F)cccc3F)c2)CC1 [Example 12] | 283 | –
Cc1ccccc1-c1cn(C2CCN(C(=O)NC3CCCCC3)CC2)cn1 [Example 14] | 351 | –
O=C(NC1CCCCC1)N1CCC(n2cnc(-c3ccc(F)cc3)c2)CC1 [Example 15] | 596 | –
Cc1ccc(-c2cn(C3CCN(C(=O)NC4CCCCC4)CC3)cn2)cc1 [Example 18] | – | PAM activity for α7 nAChR (in words): stronger PAM activity than others
O=C(Nc1ccccc1F)N1CCC(n2cnc(-c3ccc(Cl)cc3)c2)CC1 [Example 21] | 291 | –
O=C(NC1CCC(F)(F)CC1)N1CCC(n2cnc(-c3ccc(Cl)cc3)c2)CC1 [Example 22] | – | PAM activity for α7 nAChR (in words): stronger PAM activity than others
O=C(Nc1ccccc1F)N1CCC(n2cnc(-c3ccc(C(F)(F)F)cc3)c2)CC1 [Example 24] | 228 | –
O=C(NC1CCC(F)(F)CC1)N1CCC(n2cnc(-c3ccc(C(F)(F)F)cc3)c2)CC1 [Example 25] | – | PAM activity for α7 nAChR (in words): stronger PAM activity than others
O=C(NC1CCCCC1)N1CCC(n2cnc(-c3ccc(F)c(F)c3)c2)CC1 [Example 26] | 563 | –
O=C(Nc1ccccc1F)N1CCC(n2cnc(-c3ccc(F)c(F)c3)c2)CC1 [Example 27] | 139 | –
O=C(NC1CCCC1)N1CCC(n2cnc(-c3cccc(F)c3)c2)CC1 [Example 30] | 319 | –
COC1CCC(NC(=O)N2CCC(n3cnc(-c4ccc(F)cc4)c3)CC2)CC1 (stereo not drawn) [Example 33] | – | activity at 1 µM [2]: 126%
O=C(NC1CCCCC1)N1CCC(n2cnc(-c3ccccc3)c2)CC1 [Example 37] | 366 | –
O=C(NC1CCC(F)(F)CC1)N1CCC(n2cnc(-c3ccccc3)c2)CC1 [Example 39] | 823 | –
COC1CCC(NC(=O)N2CCC(n3cnc(-c4ccccc4)c3)CC2)CC1 (stereo not drawn) [Example 40] | 129 | –
O=C(NC1CCC2(CC1)CC2)N1CCC(n2cnc(-c3cccc(F)c3)c2)CC1 [Example 46] | – | activity at 1 µM [2]: 104%
O=C(NC1CCCCC1)N1CCC(n2cnc(-c3cccc(OC(F)F)c3)c2)CC1 [Example 53] | 256 | –
O=C(NC1CCCCC1)N1CCC(n2cnc(-c3ccc(OC(F)F)cc3)c2)CC1 [Example 54] | 371 | –
O=C(NC1CC2CCC1C2)N1CCC(n2cnc(-c3cccc(OC(F)F)c3)c2)CC1 (stereo not drawn) [Example 56] | 169 | –
O=C(NC1CCC(F)(F)CC1)N1CCC(n2cnc(-c3cccc(OC(F)F)c3)c2)CC1 [Example 59] | 707 | –

More lines, main results first:

activity at 10 µM [1] [%] | Structure (SMILES) | also measured
117 | O=C(NC1CC2CCC1C2)N1CCC(n2cnc(-c3cccc(F)c3)c2)CC1 (stereo not drawn) [Example 2, N-(Bicyclo[2.2.1]hept-2-yl)-4-[4-(3-fluorophenyl)-1H-imidazol-1-yl]piperidine-1-carboxamide] | –
220 | CO[C@H]1CC[C@H](NC(=O)N2CCC(n3cnc(-c4ccc(C(F)(F)F)cc4)c3)CC2)CC1 [Example 4, N-(trans-4-Methoxycyclohexyl)-4-{4-[4-(trifluoromethyl)phenyl]-1H-imidazol-1-yl}piperidine-1-carboxamide] | –
292 | O=C(C1CCC(F)(F)CC1)N1CCC(n2cnc(-c3ccccc3)c2)CC1 [Example 6, [4-(4-Phenyl-1H-imidazol-1-yl)piperidin-1-yl](4,4-difluorocyclohexyl)methanone] | –
161 | Cc1ccccc1-c1cn(C2CCN(C(=O)Nc3ccccc3F)CC2)cn1 [Example 13] | –
656 | O=C(NC1CCCCC1)N1CCC(n2cnc(-c3ccc(Cl)cc3)c2)CC1 [Example 20] | –
209 | O=C(NC1CCCCC1)N1CCC(n2cnc(-c3ccc(C(F)(F)F)cc3)c2)CC1 [Example 23] | –
798 | O=C(NC1CCC(F)(F)CC1)N1CCC(n2cnc(-c3ccc(F)c(F)c3)c2)CC1 [Example 28] | –
378 | O=C(NC1CCOCC1)N1CCC(n2cnc(-c3ccc(C(F)(F)F)cc3)c2)CC1 [Example 29] | –
300 | CC1(NC(=O)N2CCC(n3cnc(-c4cccc(F)c4)c3)CC2)CCC1 [Example 31] | –
993 | O=C(NC1CCC(F)(F)CC1)N1CCC(n2cnc(-c3cccc(F)c3)c2)CC1 [Example 32] | –
596 | O=C(NC1CCCCC1)N1CCC(n2cnc(-c3cc(F)cc(F)c3)c2)CC1 [Example 34] | –
878 | O=C(NC1CCC(F)(F)CC1)N1CCC(n2cnc(-c3cc(F)cc(F)c3)c2)CC1 [Example 35] | –
193 | O=C(NC1CCCC1)N1CCC(n2cnc(-c3ccccc3)c2)CC1 [Example 36] | –
311 | O=C(NC1CC2CCC1C2)N1CCC(n2cnc(-c3ccccc3)c2)CC1 (stereo not drawn) [Example 38] | –
250 | O=C(NC1CCCCC1)N1CCC(n2cnc(-c3ccc4c(c3)CCO4)c2)CC1 [Example 43] | –
880 | O=C(NC1CCC(F)(F)CC1)N1CCC(n2cnc(-c3ccc4c(c3)CCO4)c2)CC1 [Example 44] | –
260 | O=C(NC1CCCCCC1)N1CCC(n2cnc(-c3cccc(F)c3)c2)CC1 [Example 45] | –
520 | O=C(NC1CCCCCC1)N1CCC(n2cnc(-c3ccccc3)c2)CC1 [Example 51] | –
205 | COC1CCC(NC(=O)N2CCC(n3cnc(-c4ccc(C(F)(F)F)cc4)c3)CC2)CC1 (stereo not drawn) [Example 52] | –
403 | CCOc1ccc(-c2cn(C3CCN(C(=O)NC4CCCCC4)CC3)cn2)cc1 [Example 55] | –
302 | O=C(NC1CC2CCC1C2)N1CCC(n2cnc(-c3ccc(OC(F)F)cc3)c2)CC1 (stereo not drawn) [Example 57] | –
318 | CCOc1ccc(-c2cn(C3CCN(C(=O)NC4CC5CCC4C5)CC3)cn2)cc1 (stereo not drawn) [Example 58] | –
616 | O=C(NC1CCC(F)(F)CC1)N1CCC(n2cnc(-c3ccc(OC(F)F)cc3)c2)CC1 [Example 60] | –
915 | CCOc1ccc(-c2cn(C3CCN(C(=O)NC4CCC(F)(F)CC4)CC3)cn2)cc1 [Example 61] | –
160 | CC(C)(C)NC(=O)N1CCC(n2cnc(-c3ccc(F)cc3)c2)CC1 [Example 63] | –

— patent US20150259344A1, “IMIDAZOLE DERIVATIVE” (DAINIPPON SUMITOMO PHARMA CO., LTD., priority 2012, published 2015)
